From patent US20180132470A1, “CONTROLLED STAND-ALONE MATRIX SYSTEM FOR THE CONTROLLED DISTRIBUTION OF ACTIVE SUBSTANCES” (AB7 Innovation S.A.S.U., priority 2015, published 2018)

Assay: Release of IR3535 from cast polyurethane matrix, with and without heating activation
Type: physicochemical
Method: For the matrix, the same inputs are used as in Example 1. The PMEO is replaced by insecticide (IR3535®), which represents 30% by weight in relation to the total weight of the matrix.
The electronic card is programmed as in Example 2 except that the heating is systematically cut off when the intra-matrix temperature reaches 150° C.
FIG. 4 represents the reference release profile of IR3535® which is a non-volatile substance at ambient temperature. […] The sequential and successive activations were performed for 18 hours at a rate of 10 minutes heating followed by 20 minutes' pause. The intra-matrix temperature measured was 45° C.

## CCCCN(CCC(=O)OCC)C(C)=O [IR3535®, ethyl-3-acetyl(butyl)amino-propanoate]
After 590 sequences of heating
  residual quantity of IR3535 in relation to the quantity initially incorporated: 9.5 % by weight
After 18 hours, sequential activations 10 min heating / 20 min pause, intra-matrix 45° C., cast polyurethane matrix
  release of IR3535 initially incorporated: up to 3 % by weight
Same polyurethane matrix unheated at ambient temperature, even after 20 hours
  release of IR3535 by passive diffusion: releases absolutely nothing
Solely at moments of activation, cast polyurethane matrix
  average quantity of IR3535 released: 3.5 mg/h
